Assay results as given in US11180462B2, “Microbiocidal oxadiazole derivatives” (SYNGENTA PARTICIPATIONS AG, priority 2015, dated 2021).

Legend:
[1] = test system: Puccinia recondita f. Sp. Tritici; assay: Fungicidal activity against Puccinia recondita f. sp. tritici / wheat / leaf disc preventative (brown rust); type: in vivo; settings: foliar, 200 ppm in the applied formulation, wheat leaf segments, preventative, compared to untreated control leaf disks, read-out: disease control
Summary of the method: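 Preventative leaf-segment test, wheat cv. Kanzler on water agar. Spray compound at 200 ppm, inoculate with spores 1 day later; 19° C., 75% rh, 12/12 h light. Read-out: % disease control vs untreated, 7 to 9 days after application.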

[2] = test system: Puccinia recondita f. Sp. Tritici; assay: Fungicidal activity against Puccinia recondita f. sp. tritici / wheat / leaf disc curative (brown rust); type: in vivo; settings: foliar, 24 h, 200 ppm in the applied formulation, wheat leaf segments, curative (applied 1 day after inoculation), compared to untreated control leaf disks, read-out: disease control
Summary of the method: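 Segments of wheat cv. Kanzler were laid on agar and inoculated with a spore suspension of the rust, then held in darkness at 19° C and 75% relative humidity. One day later the water-diluted formulated compound was applied, with incubation continued under a 12 h light/dark cycle.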

Phakopsora Pachyrhizi = assay: Fungicidal activity against Phakopsora pachyrhizi / soybean / leaf disc preventative (Asian soybean rust); type: in vivo; settings: foliar, 200 ppm in the applied formulation, soybean leaf disks, compared to untreated control leaf disks, read-out: disease control
Summary of the method: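 Preventative soybean leaf-disc test: discs on water agar sprayed with diluted formulated compound, inoculated one day later with spores on the lower surface. Held 24–36 h dark at 20°C, 75% rh, then 12 h light/day; percent disease control versus untreated discs scored 12–14 days after application.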

[3] = test system: Glomerella lagenarium (Colletotrichum lagenarium); assay: Fungicidal activity against Glomerella lagenarium (Colletotrichum lagenarium) liquid culture / cucumber / preventative (anthracnose); type: cell-based; settings: Colletotrichum orbiculare; 20 ppm in the applied formulation; liquid culture (PDB), growth inhibition measured photometrically after 3 to 4 days; compared to untreated control; read-out: disease control
Summary of the method: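 Photometric read-out of fungal growth after 2–7 days, expressed as percent antifungal activity versus untreated check. Cryo-stored conidia in PDB; compound at 20 ppm; dark, 24 °C, 96% RH.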

CON(Cc1ccc(-c2noc(C(F)(F)F)n2)cc1)C(C)=O [Compound 1.1, N-methoxy-N-[[4-[5-(trifluoromethyl)-1,2,4-Oxadiazol-3-yl]Phenyl]Methyl]-Acetamide]
≥ 80%: pest or weed control at 200 ppm [1] | pest or weed control at 200 ppm [2] | pest or weed control at 200 ppm (Phakopsora Pachyrhizi) | inhibition of growth at 20 ppm [3]

CON(Cc1ccc(-c2noc(C(F)(F)F)n2)cc1)C(=O)C1CC1 [Compound 1.2, N-methoxy-N-[[4-[5-(trifluoromethyl)-1,2,4-oxadiazol-3-yl]phenyl]methyl]-cyclopropane-carboxamide]
≥ 80%: pest or weed control at 200 ppm [1] | pest or weed control at 200 ppm [2] | pest or weed control at 200 ppm (Phakopsora Pachyrhizi) | inhibition of growth at 20 ppm [3]

CON(Cc1ccc(-c2noc(C(F)(F)F)n2)cc1)C(=O)c1ccccc1 [Compound 1.3, N-methoxy-N-[[4-[5-(trifluoromethyl)-1,2,4-oxadiazol-3-yl]phenyl]methyl]-benzamide]
≥ 80%: pest or weed control at 200 ppm [1] | pest or weed control at 200 ppm [2] | pest or weed control at 200 ppm (Phakopsora Pachyrhizi) | inhibition of growth at 20 ppm [3]

CON(Cc1ccc(-c2noc(C(F)(F)F)n2)cc1)C(=O)Cc1ccccc1 [Compound 1.4, N-methoxy-2-phenyl-N-[[4-[5-(trifluoromethyl)-1,2,4-oxadiazol-3-yl]phenyl]methyl]-acetamide]
≥ 80%: pest or weed control at 200 ppm [1] | pest or weed control at 200 ppm [2] | pest or weed control at 200 ppm (Phakopsora Pachyrhizi) | inhibition of growth at 20 ppm [3]

CON(Cc1ccc(-c2noc(C(F)(F)F)n2)cc1)C(=O)C1(C(F)(F)F)CC1 [Compound 1.6, N-methoxy-1-(trifluoromethyl)-N-[[4-[5-(trifluoromethyl)-1,2,4-oxadiazol-3-yl]phenyl]methyl]-cyclopropane-carboxamide]
≥ 80%: pest or weed control at 200 ppm [1] | pest or weed control at 200 ppm [2] | pest or weed control at 200 ppm (Phakopsora Pachyrhizi) | inhibition of growth at 20 ppm [3]

CON(Cc1ccc(-c2noc(C(F)(F)F)n2)cc1)C(=O)CC1CCCC1 [Compound 1.8, 2-cyclopentyl-N-methoxy-N-[[4-[5-(trifluoromethyl)-1,2,4-oxadiazol-3-yl]phenyl]methyl]-acetamide]
≥ 80%: pest or weed control at 200 ppm [1] | pest or weed control at 200 ppm [2] | pest or weed control at 200 ppm (Phakopsora Pachyrhizi) | inhibition of growth at 20 ppm [3]

C#CCCC(=O)N(Cc1ccc(-c2noc(C(F)(F)F)n2)cc1)OC [Compound 1.11, N-methoxy-N-[[4-[5-(trifluoromethyl)-1,2,4-oxadiazol-3-yl]phenyl]methyl]-pent-4-ynamide]
≥ 80%: pest or weed control at 200 ppm [1] | pest or weed control at 200 ppm [2] | pest or weed control at 200 ppm (Phakopsora Pachyrhizi) | inhibition of growth at 20 ppm [3]

CON(Cc1ccc(-c2noc(C(F)(F)F)n2)cc1)C(=O)C(C)C [Compound 1.12, N-methoxy-2-methyl-N-[[4-[5-(trifluoromethyl)-1,2,4-oxadiazol-3-yl]phenyl]methyl]-propanamide]
≥ 80%: pest or weed control at 200 ppm [1] | pest or weed control at 200 ppm [2] | pest or weed control at 200 ppm (Phakopsora Pachyrhizi) | inhibition of growth at 20 ppm [3]

CON(Cc1ccc(-c2noc(C(F)(F)F)n2)cc1)C(=O)C1CC1(F)F (stereo not drawn) [Compound 1.15, 2,2-difluoro-N-methoxy-N-[[4-[5-(trifluoromethyl)-1,2,4-oxadiazol-3-yl]phenyl]methyl]-cyclopropane-carboxamide]
≥ 80%: pest or weed control at 200 ppm [1] | pest or weed control at 200 ppm [2] | pest or weed control at 200 ppm (Phakopsora Pachyrhizi) | inhibition of growth at 20 ppm [3]

CON(Cc1ccc(-c2noc(C(F)(F)F)n2)cc1)C(=O)C1CCCCC1 [Compound 1.16, N-methoxy-N-[[4-[5-(trifluoromethyl)-1,2,4-oxadiazol-3-yl]phenyl]methyl]-cyclohexane-carboxamide]
≥ 80%: pest or weed control at 200 ppm [1] | pest or weed control at 200 ppm [2] | pest or weed control at 200 ppm (Phakopsora Pachyrhizi) | inhibition of growth at 20 ppm [3]

C=CCCC(=O)N(Cc1ccc(-c2noc(C(F)(F)F)n2)cc1)OC [Compound 1.17, N-methoxy-N-[[4-[5-(trifluoromethyl)-1,2,4-oxadiazol-3-yl]phenyl]methyl]-pent-4-enamide]
≥ 80%: pest or weed control at 200 ppm [1] | pest or weed control at 200 ppm [2] | pest or weed control at 200 ppm (Phakopsora Pachyrhizi) | inhibition of growth at 20 ppm [3]

CON(Cc1ccc(-c2noc(C(F)(F)F)n2)cc1)C(=O)C1(C(F)(F)F)CCC1 [Compound 1.19, N-methoxy-1-(trifluoromethyl)-N-[[4-[5-(trifluoromethyl)-1,2,4-oxadiazol-3-yl]phenyl]methyl]-cyclobutane-carboxamide]
≥ 80%: pest or weed control at 200 ppm [1] | pest or weed control at 200 ppm [2] | pest or weed control at 200 ppm (Phakopsora Pachyrhizi) | inhibition of growth at 20 ppm [3]

CCCCCC(=O)N(Cc1ccc(-c2noc(C(F)(F)F)n2)cc1)OC [Compound 1.20, N-methoxy-N-[[4-[5-(trifluoromethyl)-1,2,4-oxadiazol-3-yl]phenyl]methyl]-hexanamide]
≥ 80%: pest or weed control at 200 ppm [1] | pest or weed control at 200 ppm [2] | pest or weed control at 200 ppm (Phakopsora Pachyrhizi) | inhibition of growth at 20 ppm [3]

CON(Cc1ccc(-c2noc(C(F)(F)F)n2)cc1)C(=O)C(C)CC(C)=O (stereo not drawn) [Compound 1.22, N-methoxy-2-methyl-4-oxo-N-[[4-[5-(trifluoromethyl)-1,2,4-oxadiazol-3-yl]phenyl]methyl]-pentanamide]
≥ 80%: pest or weed control at 200 ppm [1] | pest or weed control at 200 ppm [2] | pest or weed control at 200 ppm (Phakopsora Pachyrhizi) | inhibition of growth at 20 ppm [3]

CCCC(=O)N(Cc1ccc(-c2noc(C(F)(F)F)n2)cc1)OC [Compound 1.24, N-methoxy-N-[[4-[5-(trifluoromethyl)-1,2,4-oxadiazol-3-yl]phenyl]methyl]-butanamide]
≥ 80%: pest or weed control at 200 ppm [1] | pest or weed control at 200 ppm [2] | pest or weed control at 200 ppm (Phakopsora Pachyrhizi) | inhibition of growth at 20 ppm [3]

CC1(C(=O)N(CCO)Cc2ccc(-c3noc(C(F)(F)F)n3)cc2)COC1 [Compound 1.721, N-(2-hydroxyethyl)-3-methyl-N-[[4-[5-(trifluoromethyl)-1,2,4-oxadiazol-3-yl]phenyl]methyl]-oxetane-3-carboxamide]
≥ 80%: pest or weed control at 200 ppm [1] | pest or weed control at 200 ppm [2] | pest or weed control at 200 ppm (Phakopsora Pachyrhizi)

CC1(C(=O)OCCN(Cc2ccc(-c3noc(C(F)(F)F)n3)cc2)C(=O)C2(C)COC2)COC1 [Compound 1.722, 2-[(3-methyloxetane-3-carbonyl)-[[4-[5-(trifluoromethyl)-1,2,4-oxadiazol-3-yl]phenyl]methyl]-amino]ethyl 3-methyloxetane-3-carboxylate]
≥ 80%: pest or weed control at 200 ppm [1] | pest or weed control at 200 ppm [2] | pest or weed control at 200 ppm (Phakopsora Pachyrhizi)

COC(C)C(=O)N(CCO)Cc1ccc(-c2noc(C(F)(F)F)n2)cc1 (stereo not drawn) [Compound 1.731, N-(2-hydroxyethyl)-2-methoxy-N-[[4-[5-(trifluoromethyl)-1,2,4-oxadiazol-3-yl]phenyl]methyl]-propanamide]
≥ 80%: pest or weed control at 200 ppm [1] | pest or weed control at 200 ppm [2] | pest or weed control at 200 ppm (Phakopsora Pachyrhizi)

COC(C)C(=O)OCCN(Cc1ccc(-c2noc(C(F)(F)F)n2)cc1)C(=O)C(C)OC (stereo not drawn) [Compound 1.732, 2-[2-methoxypropanoyl-[[4-[5-(trifluoromethyl)-1,2,4-oxadiazol-3-yl]phenyl]methyl]-amino]ethyl 2-methoxypropanoate]
≥ 80%: pest or weed control at 200 ppm [1] | pest or weed control at 200 ppm [2] | pest or weed control at 200 ppm (Phakopsora Pachyrhizi)

CC1(C(=O)N(Cc2ccc(-c3noc(C(F)(F)F)n3)cc2)C2COC2)COC1 [Compound 1.744, 3-methyl-N-(oxetan-3-yl)-N-[[4-[5-(trifluoromethyl)-1,2,4-oxadiazol-3-yl]phenyl]methyl]-oxetane-3-carboxamide]
≥ 80%: pest or weed control at 200 ppm [1] | pest or weed control at 200 ppm [2] | pest or weed control at 200 ppm (Phakopsora Pachyrhizi)

O=C(C1CCCO1)N(Cc1ccc(-c2noc(C(F)(F)F)n2)cc1)C1COC1 (stereo not drawn) [Compound 1.747, N-(oxetan-3-yl)-N-[[4-[5-(trifluoromethyl)-1,2,4-oxadiazol-3-yl]phenyl]methyl]-tetrahydrofuran-2-carboxamide]
≥ 80%: pest or weed control at 200 ppm [1] | pest or weed control at 200 ppm [2] | pest or weed control at 200 ppm (Phakopsora Pachyrhizi)

N#CCC(=O)N(Cc1ccc(-c2noc(C(F)(F)F)n2)cc1)C1COC1 [Compound 1.748, 2-cyano-N-(oxetan-3-yl)-N-[[4-[5-(trifluoromethyl)-1,2,4-oxadiazol-3-yl]phenyl]methyl]-acetamide]
≥ 80%: pest or weed control at 200 ppm [1] | pest or weed control at 200 ppm [2] | pest or weed control at 200 ppm (Phakopsora Pachyrhizi)

CC1(C(=O)ON(Cc2ccc(-c3noc(C(F)(F)F)n3)cc2)C(=O)C2(C)COC2)COC1 [Compound 1.767, [(3-methyloxetane-3-carbonyl)-[[4-[5-(trifluoromethyl)-1,2,4-oxadiazol-3-yl]phenyl]methyl]-amino] 3-methyloxelane-3-carboxylate]
≥ 80%: pest or weed control at 200 ppm [1] | pest or weed control at 200 ppm [2] | pest or weed control at 200 ppm (Phakopsora Pachyrhizi)
